In patent EP0395672B1, “ANTIVIRAL APPLICATION OF ALPHA OLIGONUCLEOTIDES” (CENTRE NATIONAL DE LA RECHERCHE SCIENTIFIQUE, priority 1987, dated 1989):

Legend:
[1] = target: T1, réverse transcriptase de HIV1 (Human immunodeficiency virus type 1 group M subtype B, UniProt P03366); assay: inhibition of exogenous reverse transcription, poly(A) template with oligo(dT)12-18 primer (Example 2); type: biochemical
T1 construct: La réverse transcriptase de HIV1 ci-après abrégé RT a été partiellement purifiée; endogenous in cells; host or cells: HUT-78/HTLV-IIIb producer cell line; virus particles pelleted at 100,000 g and solubilised with Triton X-100
Description: Dans les exemples qui vont suivre les α oligodésoxynucléotides α-dT, α-dT₂, α-dT₄, α-dT₆, α-dT₈, α-dT₁₀, α-dT₁₂, α-dT₁₄, α-dT₁₆ ont été dissous dans de l'eau stérilisée pour les essais de réverse transcriptase. Les concentrations ont été déterminées par spectrophotométrie (coefficient d'absorption molaire : 8880, 17760, 35520, 61800, 70000, 83300, 88800, 109800 et 138400, respectivement). Les α oligodésoxynucléotides α-dC₂₀ et α-dC₃₀ ont été dissous dans de l'eau distillée et les concentrations ont été déterminées également par spectrophotométrie (coefficient d'absorption molaire 178000 et 267000, respectivement). Les solutions étaient conservées à -20° C jusqu'à leur utilisation.
Les réactions de transcription inverse ont été effectuées avec des virus HIV dont partiellement purifiées. Les fluides de culture provenant d'une lignée cellulaire produisant un HUT-78/HTLV-IIIb ont été purifiés par centrifugation à basse vitesse. Des particules virales ont été sédimentées par centrifugation à 100.000 g pendant 30 minutes. Le Pellet viral a été incubé sur glace pendant 30 minutes avec un tampon de solubilisation contenant du triton X-100 0,1 % du dithiothréitol 1mM et du glycérol 50 % et conservé dans des aliquots à -70°C jusqu'à utilisation. Les effets inhibiteurs des α oligodésoxynucléotides contenant des bases thymine sur la réaction de transcription inverse ont été effectués avec une matrice polyrA exogène et un α oligodT₁₂₋₁₈ . Le mélange de réaction (50 µl) contenait du Tris-HCl 50 mM (pH 7,8), du dithiothréitol 5mM, du glutathione 300 µM, du EGTA 500 µM et du KCl 150 mM, du MgCl₂ 5 mM, et 1,25 µg de sérum albumine de bovin, et 1 µM de (méthyl-³H) dTTP (radioactivité spécifique 30 Ci/mmol.) (5 µCi), le mélange comportait également 4,4 µg/ml de polyrA, 7,5 µM d'oligodT et du triton X-100 0,03 %, et 10 µl de solution de composé,(contenant des concentrations variables des composés) et 10 µl de préparation de réverse transcriptase. Les effets inhibiteurs sur la transcription de HIV à l'aide de α-dC₂₀ et α-dC₃₀ ont été déterminés en utilisant une matrice exogène polyI (50 µg/ml) tandis que le mélange oligodC₁₂₋₁₈ servait d'amorce (0,44 U/ml). Le mélange de réaction avec le système polyI.oligodC contenait des réactifs décrits pour le système polyrA. oligodT mais les concentrations de MgCl et KCI ont été ajustées à 2,5 mM et […], respectivement, tandis que le dTTP trifié a été substitué par le (méthyl-³H)dCTP (radioactivité spécifique 19,5 Ci/mmol) (5 µCi). Les mélanges de réactions ont été incubés à 37°C pendant 0 à 60 minutes à quel moment 100 µl d'ADN de thymus de veau (150 µg/ml), 2 ml de Na₄P₂O₇ (0,1 M dans HCL 1 N) et 2 ml de TCA (10 % v/v) ont été ajoutés. Les solutions ont été gardées sur glace pendant au moins 30 minutes, après lesquelles la matière acide insoluble a été lavée et analysée quant à sa radioactivité.
La réverse transcriptase de HIV1 ci-après abrégé RT a été partiellement purifiée et les oligomères α ont été étudiés en fonction de leur faculté à servir d'amorce sur une matrice poly(A) dans une réaction de transcription inverse exogène.
Ces pourcentages ont été calculés de la même manière que précédemment par mesure de radioactivité, laquelle indique la quantité d'incorporation de méthyl ³H dTTP (valeurs en Cpm).

L1210/0 = assay: inhibition of tumour cell proliferation; type: cell-based, murine; details: Mus musculus, mean of at least two experiments, read-out: ID50 (dose d'inhibition du développement cellulaire de 50 %)
L1210/BdUrd = assay: inhibition of tumour cell proliferation; type: cell-based, murine; details: Mus musculus; L1210/BdUrd (résistant à BdUrd); mean of at least two experiments; read-out: ID50 (dose d'inhibition du développement cellulaire de 50 %)
CEM = assay: inhibition of tumour cell proliferation; type: cell-based, humaine; details: Homo sapiens, CCRF-CEM, mean of at least two experiments, read-out: ID50 (dose d'inhibition du développement cellulaire de 50 %)
MT4 = assay: inhibition of tumour cell proliferation; type: cell-based, humaine; details: Homo sapiens, mean of at least two experiments, read-out: ID50 (dose d'inhibition du développement cellulaire de 50 %)
MOLT/4F = assay: inhibition of tumour cell proliferation; type: cell-based, humaine; details: Homo sapiens, mean of at least two experiments, read-out: ID50 (dose d'inhibition du développement cellulaire de 50 %)

Row | SMILES | pourcentages d'inhibitions de la réaction exogène de transcription inverse ([1]; 0.16 uM oligomer, 7,5 μM oligo(dT)12-18 primer) | pourcentages d'inhibitions de la réaction exogène de transcription inverse ([1]; 0.8 uM oligomer, 7,5 μM oligo(dT)12-18 primer) | pourcentages d'inhibitions de la réaction exogène de transcription inverse ([1]; 4 uM oligomer, 7,5 μM oligo(dT)12-18 primer) | pourcentages d'inhibitions de la réaction exogène de transcription inverse ([1]; 20 uM oligomer, 7,5 μM oligo(dT)12-18 primer) | pourcentages d'inhibitions de la réaction exogène de transcription inverse ([1]; 100 uM oligomer, 7,5 μM oligo(dT)12-18 primer) | EC50 ([1]; 7,5 μM oligo(dT)12-18 primer, poly(A) template, read-out: ED50 (dose requise pour inhiber la réaction de transcription inverse de 50 %)) | inhibition de la réaction de transcription inverse ([1]; result in words, in presence of primer βdT₁₂₋₁₈) | IC50 (L1210/0) | IC50 (L1210/BdUrd) | IC50 (CEM) | IC50 (MT4) | IC50 (MOLT/4F)
1 | Cc1cn([C@@H]2C[C@H](O)[C@@H](CO)O2)c(=O)[nH]c1=O [αdT] | 22% | 8% | 19% | 46% | 23% | > 100 µM | aucune inhibition significative |  |  |  |  | 
2 | Cc1cn([C@@H]2C[C@H](O)[C@@H](CO)O2)c(=O)[nH]c1=O [α-2'-dThd] |  |  |  |  |  |  |  | > 500 µM | > 500 µM | > 500 µM | > 500 µM | > 500 µM
3 | Nc1ncnc2c1ncn2[C@@H]1C[C@H](O)[C@@H](CO)O1 [α-2'-dAdo] |  |  |  |  |  |  |  | > 500 µM | > 500 µM | > 500 µM | > 500 µM | > 500 µM
4 | Nc1nc2c(ncn2[C@@H]2C[C@H](O)[C@@H](CO)O2)c(=O)[nH]1 [α-2'-dGuo] |  |  |  |  |  |  |  | > 500 µM | > 500 µM | > 500 µM | > 500 µM | > 500 µM
5 | Nc1ccn([C@@H]2C[C@H](O)[C@@H](CO)O2)c(=O)n1 [α-2'-dC] |  |  |  |  |  |  |  | > 500 µM | > 500 µM | > 500 µM | > 500 µM | > 500 µM
6 | Nc1ncnc2c1ncn2[C@H]1C[C@H](O)[C@@H](CO)O1 [β dAdo, reference compound] |  |  |  |  |  |  |  | > 500 µM | > 500 µM | 189 ± 19 µM | > 500 µM | > 500 µM
7 | Nc1nc2c(ncn2[C@H]2C[C@H](O)[C@@H](CO)O2)c(=O)[nH]1 [β dGuo, reference compound] |  |  |  |  |  |  |  | 58.2 ± 10.9 µM | 55.5 ± 6.8 µM | 22.1 ± 0.6 µM | 55.3 ± 5.3 µM | 79.5 ± 9.2 µM
8 | Cc1cn([C@H]2C[C@H](O)[C@@H](CO)O2)c(=O)[nH]c1=O [β dThd, reference compound] |  |  |  |  |  |  |  | 29 ± 1.9 µM | > 500 µM | 24.7 ± 3.42 µM | 191 ± 7 µM | > 500 µM
